{"source": "ChEMBL document CHEMBL1149543", "about": "“Discovery of inhibitors of the pentein superfamily protein dimethylarginine dimethylaminohydrolase (DDAH), by virtual screening and hit analysis” (Bioorg Med Chem Lett, 2007)"}
{"assay": "Inhibition of Pseudomonas aeruginosa DDAH", "units": {"IC50": "µM"}}
{"smiles": "O=C(Cn1cc(C=C2C(=O)NC(=S)NC2=O)c2ccccc21)NCc1ccco1", "IC50": 6.4}
{"smiles": "COc1ccc(N2C(=O)/C(=C/c3c[nH]c4ccccc34)C(=O)NC2=S)cc1", "IC50": 2}
{"smiles": "O=C(Cn1cc(/C=C2\\C(=O)NC(=S)N(c3ccccc3)C2=O)c2ccccc21)NCc1ccco1", "IC50": 16.9}
